{
  "source": "patent US12195804B2",
  "about": "“Treatment of squamous cell carcinoma” (Board of Regents, The University of Texas System, priority 2018, dated 2025)",
  "key": {"HNSCC cell lines": {"test_system": "HNSCC cell lines", "assay": "Cell cycle analysis (BrdU/7-AAD flow cytometry)", "assay_type": "cell-based, human", "details": "50 nM", "experimental": "FIGS. 16A-16C: Effects of PI3K/mTOR signaling inhibition on the survival of NOTCH1MUT and NOTCH1WT head and neck squamous cell carcinoma (HNSCC) cell lines in vitro. FIG. 16A. The Annexin V/propidium iodide assay was used to assess apoptosis in HNSCC cells that had the indicated NOTCH1 and PIK3CA mutations and were treated with 500 nM BAY806946. Values are the means {plus minus} standard deviations of three independent experiments. […], unpaired two-tailed Student t-test. FIG. 16B. NOTCH1MUT lines (red text) and NOTCH1WT lines (black text) were treated with increasing concentrations of BAY806946 for 3 hours, and then Western blotting was used to assess levels of p-AKT (S473). FIG. 16C. NOTCH1WT lines (black text), NOTCH1MUT lines (red text), and PIK3CAMUT lines (blue text) were treated with 50 nM GSK2126458 (GSK212) and then pulse-labeled with BrDU and counterstained with 7-AAD for flow cytometry.\nApoptosis and cell cycle assays. […] Data were acquired with a three-laser, 10-color Gallios flow cytometer (Beckman Coulter, Brea, CA) and analyzed using Kaluza software (Beckman Coulter, Brea, CA). […]"}, "PJ34 cells": {"test_system": "PJ34 cells", "assay": "CellTiter-Glo viability, PJ34 parental and NOTCH1 KO", "assay_type": "cell-based, human", "details": "72 hours", "experimental": "FIGS. 9A-9D: NOTCH1 knockout (KO) sensitizes two NOTCH1^WT head and neck squamous cell carcinoma (HNSCC) cell lines to PI3K/mTOR pathway inhibition in vitro. Two NOTCH1^WT HNSCC cell lines (PJ34 and UMSCC49 [UM49]), parental cell lines, and NOTCH1 KO cell lines were treated with PI3K/mTOR pathway inhibitors. FIG. 9A. The CellTiter-Glo assay was used to assess the viability of cells treated for 72 hours with the indicated concentrations of GSK2126458 (GSK212). FIG. 9B. Western blot analysis of apoptosis markers, NOTCH1, and NOTCH intracellular domain (NICD) was performed after treatment with the indicated concentrations of GSK212 for 48 hours. FIG. 9C. Apoptosis in cells treated with 50 nM GSK212 or 200 nM BEZ235 for 48 hours was measured using an Annexin V/propidium iodide assay. Values are the means±standard deviations of three independent experiments. *p<0.05, unpaired two-tailed Student t-test. FIG. 9D. […] Colony areas as percentages of the control were measured using ImageJ. […]\nCell viability assay. […] Inhibitory concentration (ICs) and area under the curve (AUC) values were calculated using the drexplorer R package with a best-fit dose-response model (Zumsteg et al., 2016). The combination indices were calculated using the Chou-Talalay method (Cal et al., 2017) in CalcuSyn (Biosoft, Cambridge, UK). […]"}},
  "data": [
    {"smiles": "COc1ncc(-c2ccc3nccc(-c4ccnnc4)c3c2)cc1NS(=O)(=O)c1ccc(F)cc1F", "note": "[GSK2126458]", "values": [
      {"measurement": "sub-G0 fraction", "setting": "HNSCC cell lines", "value": "increased the sub-G0 fraction in only NOTCH1^MUT lines"},
      {"measurement": "G1 arrest", "setting": "HNSCC cell lines; all cell lines", "value": "induced G1 arrest in all cell lines"},
      {"measurement": "IC70", "setting": "PJ34 cells; PJ34 NOTCH1 KO", "value": 24, "unit": "nM"},
      {"measurement": "IC70", "setting": "PJ34 cells; PJ34 parental", "value": 100, "unit": "nM"}
    ]}
  ]
}
